Results reported in PubChem BioAssay AID330 (DTP/NCI, 2004).
Several values for one entry are separate records, joined by “and”; a condition that tells them apart may be missing. Equal entries are not always repeated. Toxic doses and inconclusive results are not listed. How the source made its calls: active means survival T/C of 150% or more; inactive means T/C below 125% in these data.

Test system: P388 leukemia ip, CD2F1 mice, survival T/C
Experiment: NCI In Vivo Anticancer Drug Screen. Data for tumor model P388 Leukemia (intraperitoneal) in CD2F1 (CDF1) mice
Conditions: endpoint: median survival time, higher = longer survival
Procedure, shortened: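 Mice carrying the transplanted tumor received test compound or vehicle. Survival was recorded in each group, and the value is the treated-group measurement divided by that of the vehicle-treated control group.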

[1] = dose: 60.0 mg/kg/injection, schedule: Q01DX005 (ip), vehicle: saline
[2] = dose: 120.0 mg/kg/injection, schedule: Q01DX005 (ip), vehicle: saline
[3] = dose: 7.5 mg/kg/injection, schedule: Q01DX005 (ip), vehicle: saline with Tween-80
[4] = dose: 15.0 mg/kg/injection, schedule: Q01DX005 (ip), vehicle: saline with Tween-80
[5] = dose: 30.0 mg/kg/injection, schedule: Q01DX005 (ip), vehicle: saline with Tween-80
[6] = dose: 50.0 mg/kg/injection, schedule: Q01DX009 (ip), vehicle: saline
[7] = dose: 100.0 mg/kg/injection, schedule: Q01DX009 (ip), vehicle: saline
[8] = dose: 200.0 mg/kg/injection, schedule: Q01DX009 (ip), vehicle: saline
[9] = dose: 60.0 mg/kg/injection, schedule: Q01DX005 (ip), vehicle: saline with Tween-80
[10] = dose: 120.0 mg/kg/injection, schedule: Q01DX005 (ip), vehicle: saline with Tween-80
[11] = dose: 240.0 mg/kg/injection, schedule: Q01DX005 (ip), vehicle: saline with Tween-80
[12] = dose: 100.0 mg/kg/injection, schedule: Q01DX001 (ip), vehicle: saline with Tween-80
[13] = dose: 100.0 mg/kg/injection, schedule: Q04DX002 (ip), vehicle: saline with Tween-80
[14] = dose: 100.0 mg/kg/injection, schedule: Q04DX002 (ip), vehicle: saline
[15] = dose: 200.0 mg/kg/injection, schedule: Q04DX002 (ip), vehicle: saline
[16] = dose: 400.0 mg/kg/injection, schedule: Q04DX002 (ip), vehicle: saline
[17] = dose: 50.0 mg/kg/injection, schedule: Q01DX009 (ip), vehicle: saline with Tween-80
[18] = dose: 100.0 mg/kg/injection, schedule: Q01DX009 (ip), vehicle: saline with Tween-80
[19] = dose: 50.0 mg/kg/injection, schedule: Q01DX009 (ip), vehicle: Klucel (hydroxypropylcellulose) (HPC)
[20] = dose: 100.0 mg/kg/injection, schedule: Q01DX009 (ip), vehicle: Klucel (hydroxypropylcellulose) (HPC)
[21] = dose: 200.0 mg/kg/injection, schedule: Q01DX009 (ip), vehicle: Klucel (hydroxypropylcellulose) (HPC)
[22] = dose: 12.5 mg/kg/injection, schedule: Q01DX009 (ip), vehicle: saline with Tween-80
[23] = dose: 25.0 mg/kg/injection, schedule: Q01DX009 (ip), vehicle: saline with Tween-80

Measured: T/C

CC1(C)C(=O)C=CC2(C)C1CC(O)C1(C)C2CCC2(C)C(c3ccoc3)OC(=O)C3OC321 (stereo not given)
inactive: dose: 1.5 mg/kg/injection, schedule: Q01DX009 (ip), vehicle: Klucel (hydroxypropylcellulose) (HPC) 98 % of control | dose: 3.0 mg/kg/injection, schedule: Q01DX009 (ip), vehicle: Klucel (hydroxypropylcellulose) (HPC) 103 % of control | dose: 6.0 mg/kg/injection, schedule: Q01DX009 (ip), vehicle: Klucel (hydroxypropylcellulose) (HPC) 101 % of control | dose: 12.0 mg/kg/injection, schedule: Q01DX009 (ip), vehicle: Klucel (hydroxypropylcellulose) (HPC) 102 % of control

CCCc1c(-c2ccccc2)nc(N)nc1-c1nc(N)nc(-c2ccccc2)c1CCC
inactive: [1] 100 % of control | [2] 95 % of control

N#Cc1c(N)[nH]c2ccc(Sc3ccccc3)cc12
inactive: [3] 97 % of control | [4] 99 % of control | [5] 104 % of control

CC1=CP(=O)(c2ccccc2)CC1 (stereo not given) (tested in a mixture with another compound)
inactive: [1] 93 % of control | [2] 99 % of control | dose: 240.0 mg/kg/injection, schedule: Q01DX005 (ip), vehicle: saline 102 % of control

C=C(CSc1ccc(C(=O)O)c([N+](=O)[O-])c1)c1ccc([N+](=O)[O-])cc1
inactive: dose: 12.5 mg/kg/injection, schedule: Q01DX009 (ip), vehicle: saline 105 % of control | dose: 25.0 mg/kg/injection, schedule: Q01DX009 (ip), vehicle: saline 106 % of control | [6] 99 % of control and 90 % of control

O=C1C=C(Nc2ccccc2N=C2C(N3C4=CCc5ccccc5C4=Nc4ccccc43)=CC(=O)c3ccccc32)C(=O)c2ccccc21
inactive: [6] 89 % of control | [7] 91 % of control | [8] 100 % of control

Nc1[nH]n(-c2ccccc2)c(=O)c1C1c2ccccc2Sc2ccccc21
inactive: [9] 99 % of control | [10] 99 % of control | [11] 95 % of control

Nc1ncc[n+]2c(COCCCl)[nH]nc12
inactive: dose: 100.0 mg/kg/injection, schedule: Q01DX001 (ip), vehicle: Klucel (hydroxypropylcellulose) (HPC) 92 % of control | dose: 200.0 mg/kg/injection, schedule: Q01DX001 (ip), vehicle: Klucel (hydroxypropylcellulose) (HPC) 92 % of control

O=[N+]([O-])c1cc([N+](=O)[O-])c2ccc(S(=O)(=O)O)cc2c1O
inactive: dose: 12.5 mg/kg/injection, schedule: Q04DX002 (ip), vehicle: saline 100 % of control | dose: 15.0 mg/kg/injection, schedule: Q01DX005 (ip), vehicle: saline 105 % of control | dose: 30.0 mg/kg/injection, schedule: Q01DX005 (ip), vehicle: saline 99 % of control | dose: 50.0 mg/kg/injection, schedule: Q04DX002 (ip), vehicle: saline 93 % of control | [1] 100 % of control and 97 % of control | [12] 102 % of control | [13] 98 % of control | dose: 200.0 mg/kg/injection, schedule: Q01DX001 (ip), vehicle: saline with Tween-80 96 % of control

COc1ccc2c(c1)no[n+]2[O-]
inactive: [14] 93 % of control | [15] 92 % of control | [16] 99 % of control

Nc1c(OS(=O)(=O)c2ccccc2)cccc1OS(=O)(=O)c1ccccc1
inactive: [17] 91 % of control | [18] 90 % of control

O=C(CCCl)Nc1cc2ccccc2oc1=O
inactive: [9] 91 % of control | [10] 92 % of control | [11] 89 % of control

CC1C(=O)C2(C(=O)O)CC1CCC2C12C=CC(=O)C(C)(C)C1C(=O)OC2 (stereo not given)
inactive: dose: 50.0 mg/kg/injection, schedule: Q04DX002 (ip), vehicle: saline with Tween-80 100 % of control | [13] 95 % of control | dose: 200.0 mg/kg/injection, schedule: Q04DX002 (ip), vehicle: saline with Tween-80 91 % of control

CCN(CC)P(Cl)(C1=C(Cl)C(=O)C(C#N)=C(C#N)C1=O)(N(CC)CC)N(CC)CC
inactive: [12] 89 % of control | dose: 400.0 mg/kg/injection, schedule: Q01DX001 (ip), vehicle: saline with Tween-80 89 % of control

c1ccc(-c2nnn(-n3nnc(-c4ccccc4)n3)n2)cc1
inactive: dose: 100.0 mg/kg/injection, schedule: Q04DX003 (ip), vehicle: saline with Tween-80 97 % of control | dose: 200.0 mg/kg/injection, schedule: Q04DX003 (ip), vehicle: saline with Tween-80 100 % of control | dose: 400.0 mg/kg/injection, schedule: Q04DX003 (ip), vehicle: saline with Tween-80 97 % of control

O=[N+]([O-])c1ccccc1S(=O)NCc1c(Cl)cccc1Cl (stereo not given)
inactive: [9] 100 % of control | [10] 90 % of control | [11] 100 % of control

O=[N+]([O-])c1ccccc1N=Nc1c(O)sc2ccccc12
inactive: dose: 50.0 mg/kg/injection, schedule: Q01DX005 (ip), vehicle: Klucel (hydroxypropylcellulose) (HPC) 98 % of control | dose: 100.0 mg/kg/injection, schedule: Q01DX005 (ip), vehicle: Klucel (hydroxypropylcellulose) (HPC) 96 % of control | dose: 200.0 mg/kg/injection, schedule: Q01DX005 (ip), vehicle: Klucel (hydroxypropylcellulose) (HPC) 91 % of control

COc1cc(CC2NCCc3cc(O)c(O)cc32)cc(OC)c1OC (stereo not given)
inactive: dose: 25.0 mg/kg/injection, schedule: Q01DX009 (ip), vehicle: Klucel (hydroxypropylcellulose) (HPC) 103 % of control | [19] 100 % of control and 113 % of control | [20] 106 % of control and 111 % of control | [21] 108 % of control

CCN(CCc1ccc(N)cc1)C(Cc1ccccc1)c1cccc(OC)c1 (stereo not given)
inactive: [22] 95 % of control | [23] 95 % of control | [17] 87 % of control

O[C@]12CC=CC[C@]1(O)CC(N1CCCCC1)C2
inactive: [22] 100 % of control | [23] 120 % of control and 93 % of control | [17] 100 % of control and 111 % of control | [18] 93 % of control

CCCCOC(=O)C(C)OC(=O)Nc1cccc(C)c1 (stereo not given)
inactive: dose: 100.0 mg/kg/injection, schedule: Q04DX002 (ip), vehicle: Klucel (hydroxypropylcellulose) (HPC) 105 % of control | dose: 200.0 mg/kg/injection, schedule: Q04DX002 (ip), vehicle: Klucel (hydroxypropylcellulose) (HPC) 103 % of control | dose: 400.0 mg/kg/injection, schedule: Q04DX002 (ip), vehicle: Klucel (hydroxypropylcellulose) (HPC) 100 % of control

C=CCCCCCCCCC(=O)N1C(=O)C(c2ccccc2)(c2ccccc2)CSC1=S
inactive: [19] 91 % of control | [20] 92 % of control | [21] 90 % of control

C[N+]1(Cc2ccccc2)CCCC(O)C1 (stereo not given)
inactive: [3] 101 % of control | [4] 93 % of control | [5] 99 % of control

O=S(=O)(Nc1ccc(Cl)cc1)c1ccc(F)cc1
inactive: [9] 101 % of control | [10] 100 % of control | [11] 99 % of control

ClC1CN2CCC1CC2 (stereo not given)
inactive: [22] 91 % of control | [23] 95 % of control | [17] 100 % of control

O=C(O)CS(=O)(=O)CCCCS(=O)(=O)CC(=O)O
inactive: [6] 104 % of control | [7] 103 % of control | [8] 100 % of control

Cc1ccc(C2(Br)C(=O)c3ccccc3C2=O)cc1
inactive: [14] 103 % of control | [15] 102 % of control | [16] 101 % of control
